One compound from patent US10563244B2, “Nanopatterned extracellular matrices enable cell-based assays with a mass spectrometric readout” (NORTHWESTERN UNIVERSITY, priority 2016, dated 2020) can be followed below.

The experiment has as its system cellular phosphatases (phosphotyrosine phosphatases) in HeLa cells. Nature of the experiment: TCAL-SAMDI cell-based phosphatase activity assay (HeLa cells on fibronectin nanoarrays, lysis, SAMDI-MS readout). The procedure:
Cell-Based Assay for Enzyme Activity. HeLa cells were obtained from ATCC and cultured in DMEM medium supplemented with fetal bovine serum, glutamine, penicillin and streptomycin. All cells were cultured in a humidified incubator at 37° C. and 5% CO2. Cells were trypsinized and suspended in media, and the average number of cells per μL was estimated using a hemocytometer to seed the desired number of cells per spot. The volume of media per spot was 3 μL for all experiments. Cells were cultured on the monolayers presenting fibronectin and the phosphatase peptide substrate on glass slides for 2 hours under standard growth conditions. Lysis buffer (1 μL) was delivered manually to each spot and the lysate was allowed to react with the monolayer for 1 hour at 37° C. in a humidity chamber. […] A solution of 2,4,6-trihydroxyacetopehenone (THAP) in acetone (30 mg/mL) was delivered to each spot on the array and the surfaces were analyzed using an Applied Biosystems 5800 MALDI TOF/TOF instrument with a 20 kV accelerating voltage in positive reflector mode. […]
HeLa cells were seeded on the fibronectin nanopatterned surfaces and cultured the cells for two hours under standard media conditions (FIG. 4A). […] The mixed monolayer was rinsed with PBS buffer and then treated with 2,4,6-trihydroxyacetophenone (THAP) matrix (30 mg/mL in acetone) and analyzed with SAMDI-MS. […]

For the compound `O=C(CBr)c1ccc(O)cc1` [PTPI-I, PTP Inhibitor I], the “decrease in phosphatase activity” value (HeLa cells, 300 μM added to cell cultures, two hour culture period, then lysis and SAMDI-MS) was 92%. In addition, the “phosphatase activity after addition of inhibitor (SAMDI spectra, FIG. 4C)” value (figure legend says inhibitor added to the lysis buffer, HeLa cells on patterned monolayers) is reported as “loss of phosphatase activity”.
